Data from ChEMBL document CHEMBL1909046, “DrugMatrix in vitro pharmacology data”.

Legend:
[1] = biological target: Beta-3 adrenergic receptor (Homo sapiens, UniProt P13945); experiment: DRUGMATRIX: Adrenergic beta3 radioligand binding (ligand: [125I] Cyanopindolol); type: cell membranes, HEK293, Membrane; details: hek293; Not Active = under 50% inhibition at 10 µM
[2] = biological target: 5-hydroxytryptamine receptor 6 (Homo sapiens, UniProt P50406); type: cell membranes, HeLa, Membrane; details: hela; further: in other assays of this panel Not Active means under 50% inhibition at 10 µM
Chain of 5-hydroxytryptamine receptor 6 (P50406 whole entry): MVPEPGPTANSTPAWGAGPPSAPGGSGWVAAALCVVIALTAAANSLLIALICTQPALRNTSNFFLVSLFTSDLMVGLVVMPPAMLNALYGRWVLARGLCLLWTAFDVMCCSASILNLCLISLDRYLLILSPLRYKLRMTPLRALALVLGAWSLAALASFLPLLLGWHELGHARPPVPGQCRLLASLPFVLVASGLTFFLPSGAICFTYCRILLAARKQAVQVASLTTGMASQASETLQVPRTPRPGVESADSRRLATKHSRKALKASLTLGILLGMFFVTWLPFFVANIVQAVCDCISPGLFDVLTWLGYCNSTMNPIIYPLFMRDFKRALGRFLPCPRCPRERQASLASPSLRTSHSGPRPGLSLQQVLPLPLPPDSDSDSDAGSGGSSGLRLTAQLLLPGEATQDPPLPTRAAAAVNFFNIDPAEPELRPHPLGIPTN

Substance-K receptor = biological target: T1, Substance-K receptor (Homo sapiens, UniProt P21452); type: cell membranes, CHO, Membrane; details: cho; further: in other assays of this panel Not Active means under 50% inhibition at 10 µM
T1 sequence (P21452 whole entry): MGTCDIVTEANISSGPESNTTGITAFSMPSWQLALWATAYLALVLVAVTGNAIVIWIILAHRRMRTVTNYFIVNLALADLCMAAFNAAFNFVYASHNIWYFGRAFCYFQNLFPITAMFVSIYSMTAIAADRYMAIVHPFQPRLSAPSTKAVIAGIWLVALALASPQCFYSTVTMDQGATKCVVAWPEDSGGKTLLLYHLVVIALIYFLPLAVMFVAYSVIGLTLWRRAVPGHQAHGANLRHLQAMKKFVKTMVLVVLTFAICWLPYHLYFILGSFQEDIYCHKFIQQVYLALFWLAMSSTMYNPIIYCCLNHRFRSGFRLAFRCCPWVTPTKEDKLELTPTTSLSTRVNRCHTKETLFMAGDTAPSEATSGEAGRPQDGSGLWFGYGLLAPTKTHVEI

D(4) dopamine receptor = biological target: T2, D(4) dopamine receptor (Homo sapiens, UniProt P21917); experiment: DRUGMATRIX: Dopamine D4.2 radioligand binding (ligand: [3H] Spiperone); type: cell membranes, CHO-K1, Membrane; details: cho-k1; Not Active = under 50% inhibition at 10 µM
T2 sequence (P21917 whole entry): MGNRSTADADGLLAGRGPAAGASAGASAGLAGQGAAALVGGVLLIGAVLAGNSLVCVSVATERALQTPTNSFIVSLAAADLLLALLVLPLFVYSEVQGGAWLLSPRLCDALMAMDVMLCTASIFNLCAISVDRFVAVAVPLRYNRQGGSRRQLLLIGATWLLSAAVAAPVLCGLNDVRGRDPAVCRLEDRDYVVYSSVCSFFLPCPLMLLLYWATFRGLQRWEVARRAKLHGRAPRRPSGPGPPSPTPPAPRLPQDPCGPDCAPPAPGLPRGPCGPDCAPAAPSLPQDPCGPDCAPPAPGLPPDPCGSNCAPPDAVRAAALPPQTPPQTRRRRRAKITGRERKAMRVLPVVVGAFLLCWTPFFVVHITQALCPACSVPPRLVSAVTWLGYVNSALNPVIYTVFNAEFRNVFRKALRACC

[3] = DRUGMATRIX: Interleukin IL-1 radioligand binding (ligand: [125I] interleukin 1beta); type: cell membranes, Membrane; details: nih3t3; Not Active = under 50% inhibition at 10 µM
[4] = DRUGMATRIX: Purinergic P2X radioligand binding (ligand: [3H] alpha, beta-Methylene-ATP); type: cell membranes, Oryctolagus cuniculus, New Zealand albino, Urinary bladder, Membrane; details: Not Active = under 50% inhibition at 10 µM

Chain of Beta-3 adrenergic receptor (P13945 whole entry): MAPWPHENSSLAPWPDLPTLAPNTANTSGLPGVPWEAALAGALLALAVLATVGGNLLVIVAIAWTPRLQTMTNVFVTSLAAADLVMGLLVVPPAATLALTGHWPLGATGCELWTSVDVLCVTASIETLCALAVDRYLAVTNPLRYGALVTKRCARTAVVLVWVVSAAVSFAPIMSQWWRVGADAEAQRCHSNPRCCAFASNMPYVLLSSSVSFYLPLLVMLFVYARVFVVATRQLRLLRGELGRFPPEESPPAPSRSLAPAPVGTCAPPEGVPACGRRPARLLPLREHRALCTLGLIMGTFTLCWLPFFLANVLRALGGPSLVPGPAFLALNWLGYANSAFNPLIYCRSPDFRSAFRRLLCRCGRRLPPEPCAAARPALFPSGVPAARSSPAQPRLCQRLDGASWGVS

NC(=O)N1c2ccccc2CC(=O)c2ccccc21 [OXCARBAZEPINE]
Not Active: IC50 [1] | IC50 [2] | IC50 (Substance-K receptor) | IC50 (D(4) dopamine receptor) | IC50 [3] | Ki [3] | IC50 [4] | Ki [4]

COc1ccnc(C[S+]([O-])c2nc3ccc(OC(F)F)cc3[nH]2)c1OC (configuration not stated) [PANTOPRAZOLE]
Not Active: IC50 [1] | IC50 [2] | IC50 (Substance-K receptor) | IC50 (D(4) dopamine receptor) | IC50 [3] | Ki [3] | IC50 [4] | Ki [4]

N=C(N)c1ccc(OCCCCCOc2ccc(C(=N)N)cc2)cc1 [PENTAMIDINE]
Not Active: IC50 [1] | IC50 [2] | IC50 (Substance-K receptor) | IC50 (D(4) dopamine receptor) | IC50 [3] | Ki [3] | IC50 [4] | Ki [4]

NNCCc1ccccc1 [PHENELZINE]
Not Active: IC50 [1] | IC50 [2] | IC50 (Substance-K receptor) | IC50 (D(4) dopamine receptor) | IC50 [3] | Ki [3] | IC50 [4] | Ki [4]

CCc1ccc(CCOc2ccc(CC3SC(=O)NC3=O)cc2)nc1 (configuration not stated) [PIOGLITAZONE]
Not Active: IC50 [1] | IC50 [2] | IC50 (Substance-K receptor) | IC50 (D(4) dopamine receptor) | IC50 [3] | Ki [3] | IC50 [4] | Ki [4]

CCCNC(C)C(=O)Nc1ccccc1C (configuration not stated) [PRILOCAINE]
Not Active: IC50 [1] | IC50 [2] | IC50 (Substance-K receptor) | IC50 (D(4) dopamine receptor) | IC50 [3] | Ki [3] | IC50 [4] | Ki [4]

CCN(CC)CCNC(=O)c1ccc(N)cc1 [PROCAINAMIDE]
Not Active: IC50 [1] | IC50 [2] | IC50 (Substance-K receptor) | IC50 (D(4) dopamine receptor) | IC50 [3] | Ki [3] | IC50 [4] | Ki [4]

CCN(CC)CCCC(C)Nc1c2ccc(Cl)cc2nc2ccc(OC)cc12 (configuration not stated) [QUINACRINE]
Not Active: IC50 [1] | IC50 [2] | IC50 (Substance-K receptor) | IC50 (D(4) dopamine receptor) | IC50 [3] | Ki [3] | IC50 [4] | Ki [4]

C[C@]12C=CC(=O)C=C1CC[C@H]1[C@@H]3C[C@@H](O)[C@](O)(C(=O)CO)[C@@]3(C)C[C@H](O)[C@@]12F [TRIAMCINOLONE]
Not Active: IC50 [1] | IC50 [2] | IC50 (Substance-K receptor) | IC50 (D(4) dopamine receptor) | IC50 [3] | Ki [3] | IC50 [4] | Ki [4]

CC[C@]1(O)C[C@@H]2CN(CCc3c([nH]c4ccccc34)[C@@](C(=O)OC)(c3cc4c(cc3OC)N(C)[C@H]3[C@@](O)(C(N)=O)[C@H](O)[C@]5(CC)C=CCN6CC[C@]43[C@@H]65)C2)C1 [VINDESINE]
Not Active: IC50 [1] | IC50 [2] | IC50 (Substance-K receptor) | IC50 (D(4) dopamine receptor) | IC50 [3] | Ki [3] | IC50 [4] | Ki [4]

CCN(C(C)=O)c1cccc(-c2ccnc3c(C#N)cnn23)c1 [ZALEPLON]
Not Active: IC50 [1] | IC50 [2] | IC50 (Substance-K receptor) | IC50 (D(4) dopamine receptor) | IC50 [3] | Ki [3] | IC50 [4] | Ki [4]

COBALTOUS CHLORIDE
Not Active: IC50 [1] | Ki [1] | IC50 [2] | Ki [2] | IC50 (Substance-K receptor) | Ki (Substance-K receptor) | IC50 (D(4) dopamine receptor) | Ki (D(4) dopamine receptor) | IC50 [3] | Ki [3] | IC50 [4] | Ki [4]

COLISTIN
Not Active: IC50 [1] | Ki [1] | IC50 [2] | Ki [2] | IC50 (Substance-K receptor) | Ki (Substance-K receptor) | IC50 (D(4) dopamine receptor) | Ki (D(4) dopamine receptor) | IC50 [3] | Ki [3] | IC50 [4] | Ki [4]
